Results published in ChEMBL document CHEMBL4190377, “Design of Aminopeptidase N Inhibitors as Anti-cancer Agents” (J Med Chem, 2018).
Converted amounts (≈) assume the structure as drawn. Each block holds one compound with its values, some of them ahead of it.

What was measured:
[1] = system: SK-OV-3; assay: Antiproliferative activity against human SKOV3 cells after 48 hrs by MTT assay; type: functional, cell-based; conditions: SK-OV-3, 48 h
[2] = molecular target: T1, Aminopeptidase N (Sus scrofa, UniProt P15145); assay: Inhibition of APN in porcine kidney microsomes using L-leucine-p-nitroanilide as substrate preincubated for 30 mins followed by substrate addition measured after 15 mins by UV-visible spectrophotometric method
T1 sequence (P15145 whole entry): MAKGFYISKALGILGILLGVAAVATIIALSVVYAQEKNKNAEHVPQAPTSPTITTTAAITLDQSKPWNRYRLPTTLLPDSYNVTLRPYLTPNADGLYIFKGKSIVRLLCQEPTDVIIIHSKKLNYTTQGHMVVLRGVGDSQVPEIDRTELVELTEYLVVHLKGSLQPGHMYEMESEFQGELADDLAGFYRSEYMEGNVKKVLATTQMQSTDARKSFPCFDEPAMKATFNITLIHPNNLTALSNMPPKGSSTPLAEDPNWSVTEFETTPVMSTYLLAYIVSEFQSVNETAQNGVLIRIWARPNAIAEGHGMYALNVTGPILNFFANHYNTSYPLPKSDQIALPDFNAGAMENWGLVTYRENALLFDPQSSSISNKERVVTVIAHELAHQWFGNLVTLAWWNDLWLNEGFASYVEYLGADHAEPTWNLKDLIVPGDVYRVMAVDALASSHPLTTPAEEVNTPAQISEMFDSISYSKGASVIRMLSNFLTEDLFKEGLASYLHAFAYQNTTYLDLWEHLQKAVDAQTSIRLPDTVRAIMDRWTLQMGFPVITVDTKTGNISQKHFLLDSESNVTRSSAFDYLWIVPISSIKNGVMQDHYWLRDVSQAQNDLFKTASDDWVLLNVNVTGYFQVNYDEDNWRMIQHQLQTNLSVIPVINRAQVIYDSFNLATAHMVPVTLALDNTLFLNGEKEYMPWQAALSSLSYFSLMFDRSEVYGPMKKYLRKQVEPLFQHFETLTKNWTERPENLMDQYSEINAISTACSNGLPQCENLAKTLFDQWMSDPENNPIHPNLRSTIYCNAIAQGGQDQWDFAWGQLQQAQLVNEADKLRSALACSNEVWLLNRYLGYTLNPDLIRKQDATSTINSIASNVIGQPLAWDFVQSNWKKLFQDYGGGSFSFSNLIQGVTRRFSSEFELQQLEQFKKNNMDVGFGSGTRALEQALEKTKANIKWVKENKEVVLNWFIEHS

[3] = molecular target: 72 kDa type IV collagenase (Homo sapiens, UniProt P08253); assay: Inhibition of recombinant human MMP2 expressed in Escherichia coli preincubated for 30 mins followed by succinylated gelatin substrate addition measured after 60 mins
Sequence of 72 kDa type IV collagenase (P08253 whole entry): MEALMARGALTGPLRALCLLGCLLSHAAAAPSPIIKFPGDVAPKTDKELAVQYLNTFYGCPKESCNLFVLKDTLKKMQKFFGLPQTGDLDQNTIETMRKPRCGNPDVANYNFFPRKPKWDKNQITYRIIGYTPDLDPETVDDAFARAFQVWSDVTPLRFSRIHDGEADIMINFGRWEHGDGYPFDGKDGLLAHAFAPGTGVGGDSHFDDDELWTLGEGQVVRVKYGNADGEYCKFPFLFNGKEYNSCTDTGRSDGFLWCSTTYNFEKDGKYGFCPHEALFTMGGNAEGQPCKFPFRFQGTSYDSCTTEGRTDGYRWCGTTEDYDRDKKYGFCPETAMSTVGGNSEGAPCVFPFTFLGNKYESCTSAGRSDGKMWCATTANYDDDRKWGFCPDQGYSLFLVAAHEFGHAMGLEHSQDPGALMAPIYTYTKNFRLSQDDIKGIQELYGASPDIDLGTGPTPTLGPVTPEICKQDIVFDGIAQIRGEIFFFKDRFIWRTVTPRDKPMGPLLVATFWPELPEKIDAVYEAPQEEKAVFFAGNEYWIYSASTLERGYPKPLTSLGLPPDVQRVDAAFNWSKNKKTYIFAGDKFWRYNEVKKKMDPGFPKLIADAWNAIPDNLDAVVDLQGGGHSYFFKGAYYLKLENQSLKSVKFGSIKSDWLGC

[4] = system: HL-60; assay: Antiproliferative activity against human HL60 cells after 48 hrs by MTT assay; type: functional, cell-based; conditions: HL-60, 48 h
[5] = molecular target: T1, Aminopeptidase N; assay: Inhibition of pig APN
[6] = system: HL-60; assay: Antiproliferative activity against human HL60 cells after 72 hrs by MTT assay; type: functional, cell-based; conditions: HL-60, 72 h
[7] = molecular target: T1, Aminopeptidase N; assay: Inhibition of APN in porcine kidney microsomes using L-leucine-p-nitroanilide as substrate preincubated for 30 mins followed by substrate addition by UV-visible spectrophotometric method
[8] = molecular target: T2, Cytosol aminopeptidase (Sus scrofa, UniProt P28839); assay: Inhibition of porcine kidney leucine aminopeptidase using LGG as substrate after 90 mins
T2 sequence (P28839 whole entry): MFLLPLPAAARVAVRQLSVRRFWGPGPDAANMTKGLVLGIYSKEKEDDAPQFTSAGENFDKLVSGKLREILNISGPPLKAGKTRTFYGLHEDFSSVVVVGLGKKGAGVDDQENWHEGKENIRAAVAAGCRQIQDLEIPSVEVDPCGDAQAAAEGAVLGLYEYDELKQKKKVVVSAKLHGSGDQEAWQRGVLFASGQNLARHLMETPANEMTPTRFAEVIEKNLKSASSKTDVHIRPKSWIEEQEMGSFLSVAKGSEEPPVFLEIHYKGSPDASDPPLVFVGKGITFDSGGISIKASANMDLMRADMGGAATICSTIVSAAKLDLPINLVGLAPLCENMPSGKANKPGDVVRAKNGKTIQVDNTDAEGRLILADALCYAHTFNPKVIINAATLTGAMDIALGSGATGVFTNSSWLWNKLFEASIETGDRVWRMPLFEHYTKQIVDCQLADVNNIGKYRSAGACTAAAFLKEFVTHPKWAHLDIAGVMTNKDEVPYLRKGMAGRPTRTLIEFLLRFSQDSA

[9] = molecular target: T3, Leukotriene A-4 hydrolase (Homo sapiens, UniProt P09960); assay: Inhibition of full-length recombinant C-terminal FLAG-tagged human leukotriene A4 hydrolase expressed in baculovirus-infected insect cells using Arg-AMC as substrate after 1 hr by fluorescence assay
T3 sequence (P09960 whole entry): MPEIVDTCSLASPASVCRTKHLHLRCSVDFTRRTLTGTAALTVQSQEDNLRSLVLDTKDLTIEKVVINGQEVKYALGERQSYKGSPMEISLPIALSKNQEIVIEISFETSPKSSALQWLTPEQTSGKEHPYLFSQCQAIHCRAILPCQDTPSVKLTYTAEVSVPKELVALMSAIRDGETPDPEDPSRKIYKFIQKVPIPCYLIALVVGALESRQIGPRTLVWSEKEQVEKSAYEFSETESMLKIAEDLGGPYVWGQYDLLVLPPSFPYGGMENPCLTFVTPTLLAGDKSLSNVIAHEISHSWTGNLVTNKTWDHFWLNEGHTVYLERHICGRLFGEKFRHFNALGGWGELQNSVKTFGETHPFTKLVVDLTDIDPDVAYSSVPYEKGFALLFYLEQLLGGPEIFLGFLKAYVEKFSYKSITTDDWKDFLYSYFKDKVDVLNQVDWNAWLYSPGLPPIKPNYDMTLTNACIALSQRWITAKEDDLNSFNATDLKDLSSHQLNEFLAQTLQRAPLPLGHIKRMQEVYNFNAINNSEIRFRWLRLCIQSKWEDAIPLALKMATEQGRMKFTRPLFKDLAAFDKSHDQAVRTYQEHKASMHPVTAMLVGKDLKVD

[10] = molecular target: T4, Aminopeptidase N (Homo sapiens, UniProt P15144); assay: Competitive inhibition of aminopeptidase-M (unknown origin)
T4 sequence (P15144 whole entry): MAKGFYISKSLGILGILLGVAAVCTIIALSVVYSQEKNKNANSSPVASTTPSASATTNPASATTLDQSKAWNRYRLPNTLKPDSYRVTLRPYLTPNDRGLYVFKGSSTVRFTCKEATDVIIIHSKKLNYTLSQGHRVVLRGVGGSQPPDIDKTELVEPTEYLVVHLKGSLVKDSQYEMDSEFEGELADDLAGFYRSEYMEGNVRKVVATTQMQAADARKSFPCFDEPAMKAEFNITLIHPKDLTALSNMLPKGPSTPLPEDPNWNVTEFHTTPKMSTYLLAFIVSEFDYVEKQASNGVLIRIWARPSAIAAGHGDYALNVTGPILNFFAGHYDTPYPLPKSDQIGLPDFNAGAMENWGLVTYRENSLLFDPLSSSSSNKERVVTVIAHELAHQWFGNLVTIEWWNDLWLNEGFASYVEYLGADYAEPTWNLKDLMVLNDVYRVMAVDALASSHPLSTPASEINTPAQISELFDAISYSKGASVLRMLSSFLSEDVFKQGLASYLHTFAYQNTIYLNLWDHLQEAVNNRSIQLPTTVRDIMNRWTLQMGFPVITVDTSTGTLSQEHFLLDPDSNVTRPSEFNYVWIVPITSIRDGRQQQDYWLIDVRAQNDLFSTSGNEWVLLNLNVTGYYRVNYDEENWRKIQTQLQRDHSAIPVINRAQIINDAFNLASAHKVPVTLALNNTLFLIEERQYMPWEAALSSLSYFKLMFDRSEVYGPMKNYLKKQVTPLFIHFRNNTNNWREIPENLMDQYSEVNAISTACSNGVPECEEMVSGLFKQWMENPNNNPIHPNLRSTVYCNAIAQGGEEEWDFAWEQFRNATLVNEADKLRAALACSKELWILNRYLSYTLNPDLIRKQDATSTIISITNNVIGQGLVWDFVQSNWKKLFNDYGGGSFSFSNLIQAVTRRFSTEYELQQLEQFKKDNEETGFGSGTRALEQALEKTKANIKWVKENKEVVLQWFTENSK

[11] = Selectivity ratio of IC50 for APN (unknown origin) to IC50 for porcine kidney leucine aminopeptidase
[12] = molecular target: T4, Aminopeptidase N
Description: Inhibition of APN (unknown origin)

[13] = molecular target: T5, Cytosol aminopeptidase (Sus scrofa) (UniProt P28839); assay: Potency index, ratio of bestatin IC50 to compound IC50 for porcine kidney leucine aminopeptidase
T5 sequence (whole entry): T2 sequence (P28839 whole entry)

[14] = molecular target: T1, Aminopeptidase N; assay: Inhibition of APN in porcine kidney using Ala-p-NA as substrate
[15] = molecular target: T6, Glutamyl aminopeptidase (Homo sapiens, UniProt Q07075); assay: Inhibition of APA (unknown origin) using GluNA as substrate
T6 sequence (Q07075 whole entry): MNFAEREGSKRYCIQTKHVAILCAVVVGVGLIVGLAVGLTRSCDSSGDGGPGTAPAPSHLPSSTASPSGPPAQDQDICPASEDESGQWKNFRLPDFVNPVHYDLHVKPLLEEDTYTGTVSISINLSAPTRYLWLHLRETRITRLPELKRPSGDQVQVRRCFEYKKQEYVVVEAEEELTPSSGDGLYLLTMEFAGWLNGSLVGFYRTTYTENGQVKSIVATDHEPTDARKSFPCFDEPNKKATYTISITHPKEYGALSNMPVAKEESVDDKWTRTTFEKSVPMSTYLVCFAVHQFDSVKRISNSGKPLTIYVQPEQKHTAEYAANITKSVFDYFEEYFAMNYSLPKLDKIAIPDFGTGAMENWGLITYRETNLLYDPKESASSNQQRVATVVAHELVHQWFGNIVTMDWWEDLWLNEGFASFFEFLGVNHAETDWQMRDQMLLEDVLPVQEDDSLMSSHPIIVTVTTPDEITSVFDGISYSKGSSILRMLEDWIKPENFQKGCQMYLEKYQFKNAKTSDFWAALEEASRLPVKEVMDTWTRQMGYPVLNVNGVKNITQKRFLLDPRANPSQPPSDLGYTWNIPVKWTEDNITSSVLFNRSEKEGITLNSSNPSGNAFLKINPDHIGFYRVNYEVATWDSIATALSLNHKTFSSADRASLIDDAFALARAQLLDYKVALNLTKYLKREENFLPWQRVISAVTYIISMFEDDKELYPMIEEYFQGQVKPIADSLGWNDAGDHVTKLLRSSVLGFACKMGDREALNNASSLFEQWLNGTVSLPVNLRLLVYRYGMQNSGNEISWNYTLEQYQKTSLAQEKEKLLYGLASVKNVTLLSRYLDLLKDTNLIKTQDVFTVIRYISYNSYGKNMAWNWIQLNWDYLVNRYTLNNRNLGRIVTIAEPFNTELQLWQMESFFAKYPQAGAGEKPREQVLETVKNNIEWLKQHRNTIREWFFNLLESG

[16] = Solubility in PBS; type: physicochemical
[17] = system: A549; assay: Antiproliferative activity against human A549 cells over-expressing APN after 48 hrs by MTT assay; type: functional, cell-based; conditions: A549, 48 h
[18] = Antiproliferative activity against human ES2 cells over-expressing APN after 48 hrs by MTT assay; type: functional, cell-based; conditions: ES-2, 48 h
[19] = system: MDA-MB-231; assay: Antiproliferative activity against human MDA-MB-231 cells after 48 hrs by MTT assay; type: functional, cell-based; conditions: MDA-MB-231, 48 h
[20] = molecular target: T6, Glutamyl aminopeptidase; assay: Inhibition of APA (unknown origin) using GlubetaNA as substrate after 30 mins
[21] = molecular target: T1, Aminopeptidase N; assay: Inhibition of APN in porcine kidney using Ala-betaNA as substrate preincubated for 10 mins followed by substrate addition measured after 30 mins by fluorescence spectrofluorometric method
[22] = molecular target: T7, Leucine aminopeptidase (Sus scrofa, UniProt Q29571); assay: Competitive inhibition of LAP in porcine kidney microsomes
T7 sequence (Q29571 whole entry): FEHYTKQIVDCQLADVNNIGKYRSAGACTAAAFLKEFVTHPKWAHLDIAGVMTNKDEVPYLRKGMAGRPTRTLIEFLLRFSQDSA

[23] = system: Mus musculus; assay: Increase in plasma vasopressin release in mouse at 100 ug administered as single dose by RIA; type: functional
[24] = molecular target: T8, Aminopeptidase B (Rattus norvegicus, UniProt O09175); assay: Inhibition of APB in rat testis using ArgbetaNA as substrate
T8 sequence (O09175 whole entry): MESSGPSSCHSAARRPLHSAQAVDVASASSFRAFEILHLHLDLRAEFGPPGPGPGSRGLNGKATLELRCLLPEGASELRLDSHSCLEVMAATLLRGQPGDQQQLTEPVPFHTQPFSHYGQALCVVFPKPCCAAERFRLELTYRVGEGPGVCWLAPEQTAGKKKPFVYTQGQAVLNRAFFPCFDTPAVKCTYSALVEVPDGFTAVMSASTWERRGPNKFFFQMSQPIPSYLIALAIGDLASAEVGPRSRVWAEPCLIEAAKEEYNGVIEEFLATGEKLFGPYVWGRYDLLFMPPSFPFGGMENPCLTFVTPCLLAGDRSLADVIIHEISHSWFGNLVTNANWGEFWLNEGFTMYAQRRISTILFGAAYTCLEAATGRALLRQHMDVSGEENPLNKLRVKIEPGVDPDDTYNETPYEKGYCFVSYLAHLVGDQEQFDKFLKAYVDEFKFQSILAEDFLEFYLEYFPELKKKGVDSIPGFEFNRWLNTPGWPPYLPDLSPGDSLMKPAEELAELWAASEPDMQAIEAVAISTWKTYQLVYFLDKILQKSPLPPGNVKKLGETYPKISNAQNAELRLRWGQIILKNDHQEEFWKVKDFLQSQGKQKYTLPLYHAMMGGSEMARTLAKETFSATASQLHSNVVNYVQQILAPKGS

SMILES: CCCCC[C@H](CC(=O)NO)C(=O)N[C@H](C(=O)N1CCC[C@H]1CO)C(C)C [ACTINONIN]
IC50 [10]: 400 nM | Ki [10]: 170 nM

SMILES: CC(N)P(=O)(O)C[C@@H](Cc1ccccc1)C(=O)N[C@@](C)(Cc1ccccc1)C(=O)O (stereo partly drawn)
Ki [14]: 0.6 nM | Ki [15]: 130 nM

SMILES: CC(C)CC(N)B1OC(C)(C)C(C)(C)O1 (stereo not drawn)
IC50 [12]: 25 nM

SMILES: CC[C@H](C)[C@H](NC(=O)C(S)C(N)CCC(=O)O)C(=O)N[C@@H](CC(=O)O)C(=O)O (stereo partly drawn)
Ki [20]: 13 nM | Ki [21]: 120 nM

SMILES: CC(C)C[C@@H](N)CS
Ki [22]: 22 nM

SMILES: CSCCC(N)CS (stereo not drawn)
Activity [23]: >220% | Ki [24]: 1000 nM | Ki [20]: 17200 nM

SMILES: CC(N)B1OC(C)(C)C(C)(C)O1 (stereo not drawn)
IC50 [12]: 40 nM

SMILES: CC(C)C[C@@H](NC(=O)[C@H](Cc1ccc(O)cc1)NC(=O)[C@@H](O)CN)C(=O)O
IC50 [2]: 2510 nM

SMILES: N#Cc1cc(Cc2ccc3c(ccc4ccccc43)c2C#N)cc2c1ccc1ccccc12
Ki [5]: 2900 nM

The next lines start with results.

IC50 [1]: 380 nM | IC50 [2]: 12200 nM | IC50 [3]: 203000 nM | IC50 [4]: 170 nM
SMILES: CC(C)C[C@@H](NC(=O)[C@H](Cc1ccccc1)NC(=O)[C@@H](O)CN)C(=O)O

Ki [5]: 1630 nM
SMILES: C(=C1/c2ccccc2-c2c1ccc1ccccc21)/c1cc2c3c(cccc3c1)-c1ccccc1-2

IC50 [6]: 1970 nM | IC50 [7]: 5000 nM
SMILES: Cc1ccc(NC(=O)CN2C(=O)CC[C@H](NC(=O)C(N)Cc3ccccc3)C2=O)c(C)c1 (stereo partly drawn)

IC50 [8]: 30 nM | IC50 [9]: 8 nM
SMILES: CC(C)C[C@H](C(=O)N[C@H](C(=O)O)c1ccccc1)[C@H](O)C(=O)NO

Ratio IC50 [11]: 2 | IC50 [8]: 100 nM | IC50 [12]: 220 nM | Ratio IC50 [13]: 300
SMILES: CC(C)C[C@H](C(=O)N[C@H](C(=O)OC1CCCC1)c1ccccc1)[C@H](O)C(=O)NO

IC50 [12]: 20 nM
SMILES: CC1(C)OB(C(N)Cc2ccccc2)OC1(C)C (stereo not drawn)

solubility [16]: 35.7 mM (≈ 11 mg/mL)
SMILES: CC(C)C[C@H](NC(=O)[C@@H](O)[C@H](N)Cc1ccccc1)C(=O)O [UBENIMEX]

solubility [16]: 85.2 mM (≈ 41.3 mg/mL) | IC50 [17]: 36000 nM | IC50 [19]: 260000 nM | IC50 [7]: 7200 nM
SMILES: CC(C)CC(NC(=O)C(O)C(N)Cc1ccccc1)C(=O)NC(CO)C(=O)NCc1ccccc1 (stereo not drawn)
IC50 [18]: 12600 nM

Ki [5]: 1950 nM
SMILES: Cc1ccc(C(=O)NN/C(=N/S(=O)(=O)c2ccc(-n3nc(C(F)(F)F)cc3-c3cccs3)cc2)N2CCCC2)cc1

Ki [14]: 1.5 nM | Ki [15]: 40000 nM
SMILES: C[C@@](Cc1ccccc1)(NC(=O)[C@H](Cc1ccccc1)CP(=O)(O)C(N)Cc1ccccc1)C(=O)O (stereo partly drawn)

Ki [5]: 1000 nM
SMILES: NC1COc2ccccc2CC1=O (stereo not drawn)
